Our source for the IC50 values is PMC10184130.

Holding throughout (format): biochemical
One assay addresses T1, human MASP2 (Homo sapiens, UniProt O00187).
T1 construct: Recombinant human MASP2 (298–686 aa) fused with both the N-terminal IgG signal peptide; IgG signal peptide (N); His tag (C); made in house; host or cells: Expi293 cells
The assay is described as follows: Human MASP2 enzyme assay. As to conditions: supplementary csv. How it is done: Recombinant human MASP2 (298–686 aa) fused with both the N-terminal IgG signal peptide and the C-terminal His tag was expressed in Expi293 cells and purified. The assay was performed in a 384-well black plate in a total volume of 6 μL of the assay buffer 1. After 20 nL of compound solution was added to the plate, 3 μL of substrate solution containing a 20 μmol/L Z-Gly-Arg-SBzl peptide and 20 μmol/L BES-Thio (FUJIFILM Wako, Osaka, Japan) was added to the plate. Then, 0.6 nmol/L human MASP2 was added to the plate and incubated at room temperature for 60 min. The fluorescence at an excitation wavelength of 485 nm and an emission wavelength of 535 nm was detected using an EnVision multilabel plate reader.

The next assay addresses T2, mouse C1s (Mus musculus, UniProt Q8CG14).
T2 construct: Recombinant mouse C1s (22–694 aa) fused with both the N-terminal IgG signal peptide; IgG signal peptide (N); His tag (C); made in house; host or cells: Expi293 cells
T2 sequence (Q8CG14 438-688 limits assumed): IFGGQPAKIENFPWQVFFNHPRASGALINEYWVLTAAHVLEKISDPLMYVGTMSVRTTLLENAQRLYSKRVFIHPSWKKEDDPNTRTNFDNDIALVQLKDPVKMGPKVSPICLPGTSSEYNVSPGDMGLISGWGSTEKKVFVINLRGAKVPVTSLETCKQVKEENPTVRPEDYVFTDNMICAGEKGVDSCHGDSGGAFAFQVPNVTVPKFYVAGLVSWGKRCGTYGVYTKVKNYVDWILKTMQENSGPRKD
T2 sequence (Q8CG14 16-437 partner limits assumed): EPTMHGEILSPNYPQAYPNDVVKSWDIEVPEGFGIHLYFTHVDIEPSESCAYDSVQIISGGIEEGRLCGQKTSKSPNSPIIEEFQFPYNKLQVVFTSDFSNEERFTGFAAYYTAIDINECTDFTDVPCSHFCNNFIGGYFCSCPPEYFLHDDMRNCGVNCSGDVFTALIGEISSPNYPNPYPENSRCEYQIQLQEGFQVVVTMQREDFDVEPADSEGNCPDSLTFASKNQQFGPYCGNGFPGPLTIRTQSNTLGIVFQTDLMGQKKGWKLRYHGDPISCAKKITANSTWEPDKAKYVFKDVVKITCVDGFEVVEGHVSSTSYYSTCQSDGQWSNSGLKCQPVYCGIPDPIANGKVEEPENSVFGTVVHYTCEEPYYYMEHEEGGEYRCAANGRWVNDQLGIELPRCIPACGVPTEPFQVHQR
The assay is described as follows: Mouse C1s enzyme assay. As to conditions: supplementary csv. From the text: Recombinant mouse C1s (22–694 aa) fused with both the N-terminal IgG signal peptide and the C-terminal His tag was expressed in Expi293 cells and purified. Mouse C1s was activated by recombinant human C1r prior to use. Mouse C1s assay conditions were the same as for human C1s, except that the enzyme solution concentration was 30 nmol/L.

For a further assay, the target named is T3, human thrombin (Homo sapiens, UniProt P00734).
T3 construct: purchased AnaSpec
The assay is described as follows: Human thrombin enzyme assay. The conditions noted are these: supplementary csv. How it is done: The human thrombin enzyme activity was determined by a SensoLyte 520 thrombin activity assay kit (AnaSpec, CA, USA). Purified human thrombin and the substrate were diluted in the assay buffer 1. After 20 nL of compound solution was added to a 384-well black plate, 3 μL of the 2 μmol/L 5-FAM/QXLTM 520 thrombin substrate was added to the plate. Then, 8 nmol/L human thrombin was added to the plate and incubated at room temperature for 60 min. The fluorescence at an excitation wavelength of 485 nm and an emission wavelength of 535 nm was detected using an EnVision multilabel plate reader.

Another assay deals with T4, human C1s (Homo sapiens, UniProt P09871).
T4 construct: Recombinant human C1s (358–688 aa) fused with both the N-terminal IgG signal peptide; IgG signal peptide (N); His tag (C); made in house; host or cells: HEK293 cells
T4 sequence (P09871 358-688): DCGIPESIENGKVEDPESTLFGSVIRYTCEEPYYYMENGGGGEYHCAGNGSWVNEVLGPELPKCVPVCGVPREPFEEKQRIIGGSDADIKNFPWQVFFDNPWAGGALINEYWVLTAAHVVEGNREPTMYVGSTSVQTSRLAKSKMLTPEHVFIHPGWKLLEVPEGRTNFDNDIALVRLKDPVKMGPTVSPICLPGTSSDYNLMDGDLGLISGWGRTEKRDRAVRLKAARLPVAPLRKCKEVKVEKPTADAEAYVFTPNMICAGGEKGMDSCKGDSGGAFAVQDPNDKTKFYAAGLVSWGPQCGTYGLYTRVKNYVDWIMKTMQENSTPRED
The assay is described as follows: Human C1s enzyme assay. As to conditions: 95% confidence intervals in parentheses. How it is done: Recombinant human C1s (358–688 aa) fused with both the N-terminal IgG signal peptide and the C-terminal His tag was expressed in HEK293 cells and purified. The assay was performed in a 384-well clear plate in a total volume of 20 μL of an assay buffer 1 [50 mmol/L Tris–HCl (pH 7.5), 150 mmol/L NaCl, 0.01% (w/v) Tween 20, and 0.01% (w/v) BSA]. Compounds were dissolved in DMSO and diluted to various concentrations. After 20 nL of compound solution was added to the plate, 10 μL of substrate solution containing a 250 μmol/L Z-Lys-SBzl peptide (Watanabe Chemical, Hiroshima, Japan) and 250 μmol/L DTNB (5,5′-dithiobis(2-nitrobenzoic acid)) (Sigma, MO, USA) was added to the plate. Then, 8 nmol/L human C1s was added to the plate and incubated at room temperature for 60 min. The absorbance at 405 nm was detected using an EnVision multilabel plate reader. […] The IC50 values were calculated using IDBS XLfit software.

The target in another assay is T5, human plasmin (Homo sapiens, UniProt P00747).
T5 construct: purchased Zedira
T5 sequence (P00747 581-810 limits assumed): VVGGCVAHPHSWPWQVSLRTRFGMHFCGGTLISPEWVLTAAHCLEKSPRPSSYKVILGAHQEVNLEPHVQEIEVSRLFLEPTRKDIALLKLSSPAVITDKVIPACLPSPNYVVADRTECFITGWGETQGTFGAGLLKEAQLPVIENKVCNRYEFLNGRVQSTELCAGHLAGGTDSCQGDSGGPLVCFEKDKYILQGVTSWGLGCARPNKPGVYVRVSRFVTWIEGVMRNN
In words: Human plasmin enzyme assay. The conditions noted are these: supplementary csv. How it is done:
Recombinant human plasmin (Zedira, Hesse, Germany) and the substrate were diluted in an assay buffer [50 mmol/L Tris–HCl (pH 7.5), 150 mmol/L NaCl, and 0.01% (w/v) Tween 20]. Compounds were dissolved in DMSO and then diluted in an assay buffer. After 5 μL of compound solution was added to a 384-well black plate, 5 μL of substrate solution containing 75 μmol/L Boc-Val-Leu-Lys-MCA (Peptide Institute, Osaka, Japan) was added to the plate. Then, 11.25 nmol/L human plasmin was added to the plate and incubated at room temperature for 60 min. The fluorescence at an excitation wavelength of 380 nm and an emission wavelength of 460 nm was detected using an EnVision multilabel plate reader.

T1 sequence (O00187 298-686): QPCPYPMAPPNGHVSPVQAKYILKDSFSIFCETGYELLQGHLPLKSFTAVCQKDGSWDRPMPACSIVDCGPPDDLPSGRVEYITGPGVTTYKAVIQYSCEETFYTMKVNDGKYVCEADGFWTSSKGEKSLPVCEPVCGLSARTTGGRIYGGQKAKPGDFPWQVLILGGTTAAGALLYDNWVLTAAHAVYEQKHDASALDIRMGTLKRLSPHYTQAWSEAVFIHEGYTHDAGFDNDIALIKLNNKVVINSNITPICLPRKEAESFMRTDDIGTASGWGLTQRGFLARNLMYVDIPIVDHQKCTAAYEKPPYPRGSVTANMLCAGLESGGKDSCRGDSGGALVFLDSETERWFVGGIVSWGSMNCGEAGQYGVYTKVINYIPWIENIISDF

As a reminder, the IC50 is the midpoint of a concentration-inhibition curve. `Cc1cc([C@H]2CN(c3cc(F)c4c(N)nncc4c3)CCN2c2cccc(F)c2)no1` [Compound (R)-8, 8-Fluoro-6-[(3R)-4-(3-fluorophenyl)-3-(5-methyl-1,2-oxazol-3-yl)piperazin-1-yl]phthalazin-1-amine]: the IC50 was greater than 30 µM against human MASP2; 0.061 µM on mouse C1s; greater than 30 µM on human thrombin; 0.036 µM on human C1s; greater than 30 µM at human plasmin.
